# From article PMC8406801, “Naringenin Inhibits Platelet Activation and Arterial Thrombosis Through Inhibition of Phosphoinositide 3-Kinase and Cyclic Nucleotide Signaling” (Frontiers in Pharmacology, 2021)
# “And” between values parts separate entries of the source, which are not always exact repeats. Equal values may be shown once. Read-outs that look alike come from different tables or passages of the source.
# Tests used:
# washed rat platelets = assay: Collagen (2 μg/ml)-induced aggregation of washed platelets; format: cell-based; conditions: for Aggregation (%) / Aggregation % of control: washed platelets, single replicates; for Aggregation (%): raw data
# Experimental: (§1) Washed rat platelets were prepared as described previously ([Gao et al., 2011]) with a minor modification. Briefly, rat blood was drawn from the abdominal aorta into the siliconized vacutainers containing 1:9 (v/v) 3.8% sodium citrate, supplemented with 100 ng/ml prostaglandin E1 (PGE1) and centrifuged at 300 × g for 6 min at room temperature. Platelet-rich plasma (PRP) was obtained, and after the addition of 100 ng/ml PGE1, platelets were pelleted at 900 × g for 10 min. Platelets were washed once in Tyrode’s buffer (12 mM NaHCO3, 138 mM NaCl, 5.5 mM glucose, 2.9 mM KCl, 2 mM MgCl2, 0.42 mM NaH2PO4, 10 mM HEPES, pH 7.4) containing 100 ng/ml PGE1, and finally resuspended in Tyrode’s buffer containing 0.02 U/mL apyrase to a final concentration of 4×10^8 cells/mL. Washed platelets were preincubated with vehicle (0.4% dimethyl sulfoxide) or various concentrations of naringenin in the presence of 2 mM CaCl2 for 5 min at 37°C, and then further stimulated by ADP (10 μM), thrombin (0.2 U/mL) or collagen (2 μg/ml). The maximum platelet aggregation rate was detected within 5 min with continuous stirring.
# (§2) FIGURE 1 Effects of naringenin and naringin on platelet aggregation. Chemical structure of naringin (A) and naringenin (B). The effects of naringin (C) or naringenin (D) on PRP were measured following stimulation with 10 μmol/L ADP. Rat washed platelet aggregation performed with or without different concentrations of naringin (E) or naringenin (F) was recorded after stimulation with 10 μmol/L ADP. Similarly, Washed platelet aggregation performed with vehicle or various concentrations of naringenin was recorded after stimulation with 0.2 U/mL thrombin (G) or 2 μg/ml collagen (H). WP represents washed platelets. Data are expressed as means ± SD (n = 6), the level of aggregation obtained at 5 min with vehicle-treated samples (0 μM) was taken as 100%. *p < 0.05, **p < 0.01, ***p < 0.001 compared with the vehicle control group.
# [1] = test system: PRP (platelet-rich plasma); assay: ADP (10 μmol/L)-induced aggregation of PRP in vitro; format: cell-based, rat; conditions: for Aggregation (%): raw data
# Experimental: as §1
# Platelet aggregation was induced by ADP using washed platelets and PRP. Washed platelets were preincubated with vehicle (containing 0.4% DMSO) or different doses (100, 200, 400, and 800 μM) of naringenin or naringin for 5 min before activation with ADP (10 μM) for 5 min. […] For example, naringenin, at doses of 100 and 800 μM, decreased ADP-induced platelet aggregation to 54.5 ± 6.2% and 6.3 ± 1.7%, respectively (n = 6; p < 0.001, control group platelet aggregation was taken as 100%) (Figure 1F). […] Because dietary flavonoids have been reported to bind plasma proteins and cause the lowering of inhibitory potency in PRP ([Wright et al., 2013]), the ability of naringenin and naringin on platelet function in PRP was investigated to compare their effects with washed platelets.
# as §2
# [2] = test system: washed platelets on collagen-coated coverslips; assay: Platelet adhesion on collagen-coated surface; format: cell-based, rat; conditions: for Area (%) of platelets adherent on collagen: single replicates
# Experimental: Washed platelets were treated with naringenin or vehicle at 37°C for 10 min in the presence of 2 mM CaCl2 ([Suzuki-Inoue et al., 2001]). The platelets were added to collagen-coated coverslips and incubated at 37°C for 45 min. After unbound platelets were removed by washing, adherent platelets were fixed with 4% paraformaldehyde, permeabilized with 0.1% Triton X-100 and stained with TRITC-conjugated phalloidin (1 μg/ml). Adherent platelets were viewed using an inverted fluorescence microscope (Nikon TE-2000S) and processed using Image J software.
# ERK1/2 phosphorylation = assay: Immunoblotting of phospho-ERK1/2 (Thr202/Tyr204) in ADP-stimulated washed platelets; format: cell-based, rat; conditions: ADP 10 μmol/L, single replicates; for p-ERK1/2 / t-ERK: raw data
# Experimental: For in vitro platelet aggregation, aliquots of washed platelets were preincubated with vehicle or various concentrations of naringenin for 5 min and stimulated with ADP (10 μmol/L) under stirring at 37°C for 5 min. For ex vivo platelet aggregation, PRP was incubated at 37°C for 5 min and stimulated with ADP (5 μmol/L) under stirring at 37 °C. The platelet aggregation was terminated by adding ethylenediaminetetraacetic acid (EDTA; 10 mM). Total protein was prepared using RIPA lysis buffer and protein content was determined by bicinchoninic acid (BCA) protein assay kit. Equal amounts of platelet proteins (30 μg) were separated on 10% SDS polyacrylamide gel electrophoresis (SDS-PAGE) and then transferred to poly vinylidene difluoride (PVDF) membranes and subjected to western blot. Blots were blocked with TBS-Tween 20 containing 5% BSA and probed with primary antibodies diluted in blocking solution at 4°C overnight followed by incubation with the corresponding HRP secondary antibodies. The protein bands were visualized using enhanced chemiluminescence (ECL).
# FIGURE 4 Naringenin inhibits PI3K-mediated signaling in ADP-induced platelets. Washed rat platelets were preincubated without or with naringenin at 37°C for 5 min, and then stimulated with ADP (10 μmol/L) under stirring for 5 min. Platelet proteins were then extracted and analyzed by immunoblotting using PI3Kp110β antibody (A) and phospho-specific antibodies such as Akt^Ser473 (B), Akt^Thr308 (C), ERK1/2^Thr202/Tyr204 (D) and GSK3β^Ser9 (E). Total level of GAPDH was measured on each sample as a loading control. The blots shown are representative of three separate experiments. The relative protein expression levels were quantified by ImageJ 1.47v software. The level of relative protein expression obtained with vehicle control (0 μM) was taken as 1. R represents the level of relative protein expression in resting platelets. Data are expressed as means ± SD (n = 3). *p < 0.05, **p < 0.01, ***p < 0.001 compared with the vehicle control group.
smiles,measurement,setting,value
O=C1C[C@@H](c2ccc(O)cc2)Oc2cc(O)cc(O)c21 [Naringenin],IC50,washed rat platelets,~236 µM
same,IC50,"washed rat platelets; Rattus norvegicus, Platelet",236 ± 33.1 µM
same,Aggregation (%),washed rat platelets; 100 μM,32.0% and 39.6% and 43.9% and 35.0% and 27.0% and 45.0%
same,Aggregation % of control,washed rat platelets; 100 μM,75.4 % of control and 93.4 % of control and 103.5 % of control and 82.5 % of control and 63.6 % of control and 106.1 % of control
same,Aggregation (%),washed rat platelets; 200 μM,24.1% and 37.0% and 14.9% and 25.4% and 24.3% and 10.0%
same,Aggregation % of control,washed rat platelets; 200 μM,56.8 % of control and 87.2 % of control and 35.1 % of control and 59.9 % of control and 57.3 % of control and 23.6 % of control
same,Aggregation (%),washed rat platelets; 400 μM,10.0% and 14.0% and 11.7% and 7.9% and 15.4% and 4.9%
same,Aggregation % of control,washed rat platelets; 400 μM,23.6 % of control and 33.0 % of control and 27.6 % of control and 18.6 % of control and 36.3 % of control and 11.6 % of control
same,Aggregation (%),washed rat platelets; 800 μM,7.3% and 9.1% and 9.0% and 4.9% and 4.2% and 14.0%
same,Aggregation % of control,washed rat platelets; 800 μM,17.2 % of control and 21.5 % of control and 21.2 % of control and 11.6 % of control and 9.9 % of control and 33.0 % of control
same,decrease of aggregation in PRP,"[1]; ADP-induced, 100 μM",18%
same,Aggregation (%),"[1]; PRP, ADP 10 μmol/L, compound 100 μM, single replicates",44.9% and 44.8% and 49.7% and 47.9% and 48.3%
same,Aggregation % of control,"[1]; PRP, ADP 10 μmol/L, compound 100 μM, single replicates, 100 µM",78.3 % of control and 86.8 % of control and 83.7 % of control and 79.5 % of control and 84.4 % of control
same,Aggregation (%),"[1]; PRP, ADP 10 μmol/L, compound 200 μM, single replicates",42.5% and 44.3% and 48.9% and 47.2% and 39.7%
same,Aggregation % of control,"[1]; PRP, ADP 10 μmol/L, compound 200 μM, single replicates, 200 µM",77.4 % of control and 85.4 % of control and 82.4 % of control and 69.3 % of control and 74.1 % of control
same,Aggregation (%),"[1]; PRP, ADP 10 μmol/L, compound 400 μM, single replicates",39.7% and 31.6% and 37.9% and 34.1% and 44.8%
same,Aggregation % of control,"[1]; PRP, ADP 10 μmol/L, compound 400 μM, single replicates, 400 µM",66.9 % of control and 69.3 % of control and 55.2 % of control and 66.2 % of control and 59.6 % of control and 78.3 % of control
same,Aggregation (%),"[1]; PRP, ADP 10 μmol/L, compound 800 μM, single replicates",30.9% and 33.6% and 36.0% and 28.9% and 28.6% and 38.4%
same,Aggregation % of control,"[1]; PRP, ADP 10 μmol/L, compound 800 μM, single replicates, 800 µM",58.7 % of control and 62.9 % of control and 50.5 % of control and 50.0 % of control and 67.1 % of control
same,activity at 100 µM,"[1]; Rattus norvegicus, PRP, ADP 10 μmol/L, compound 100 μM, single replicates, read-out: Aggregation % of control",78.4%
same,activity at 200 µM,"[1]; Rattus norvegicus, PRP, ADP 10 μmol/L, compound 200 μM, single replicates, read-out: Aggregation % of control",74.2%
same,activity at 800 µM,"[1]; Rattus norvegicus, PRP, ADP 10 μmol/L, compound 800 μM, single replicates, read-out: Aggregation % of control",54%
same,Area (%) of platelets adherent on collagen,[2]; 100 μM,29.32% and 16.92% and 17.38%
same,Area (%) of platelets adherent on collagen,[2]; 200 μM,17.54% and 13.16% and 17.35%
same,Area (%) of platelets adherent on collagen,[2]; 400 μM,12.99% and 15.28% and 9.21%
same,Area (%) of platelets adherent on collagen,[2]; 800 μM,2.55% and 1.74% and 1.66%
same,platelet adhesion on collagen-coated surface,"[2]; 200, 400 and 800 μM",significantly reduced
same,p-ERK1/2 / t-ERK,ERK1/2 phosphorylation; 100 μM,0.3358 and 0.4551 and 0.3494
same,p-ERK1/2 / t-ERK (Fold to ADP only),ERK1/2 phosphorylation; 100 μM,0.4798 Fold to ADP only and 0.6502 Fold to ADP only and 0.4991 Fold to ADP only
same,p-ERK1/2 / t-ERK,ERK1/2 phosphorylation; 200 μM,0.2390 and 0.3446 and 0.2653
same,p-ERK1/2 / t-ERK (Fold to ADP only),ERK1/2 phosphorylation; 200 μM,0.3414 Fold to ADP only and 0.4923 Fold to ADP only and 0.3790 Fold to ADP only
same,p-ERK1/2 / t-ERK,ERK1/2 phosphorylation; 400 μM,0.0291 and 0.2751 and 0.1193
same,p-ERK1/2 / t-ERK (Fold to ADP only),ERK1/2 phosphorylation; 400 μM,0.0416 Fold to ADP only and 0.3930 Fold to ADP only and 0.1704 Fold to ADP only
same,p-ERK1/2 / t-ERK,ERK1/2 phosphorylation; 800 μM,0.0106 and 0.1491 and 0.1406
same,p-ERK1/2 / t-ERK (Fold to ADP only),ERK1/2 phosphorylation; 800 μM,0.0152 Fold to ADP only and 0.2129 Fold to ADP only and 0.2008 Fold to ADP only
